What was measured:
Assay in all cases: KinomeScan profiling
Type in all cases: binding
CAMK4 = biological target: T1, CAMK4 (Homo sapiens, UniProt Q16566); details: CAMK4, 1 μM; read-out: % control
T1 sequence (Q16566 1-473): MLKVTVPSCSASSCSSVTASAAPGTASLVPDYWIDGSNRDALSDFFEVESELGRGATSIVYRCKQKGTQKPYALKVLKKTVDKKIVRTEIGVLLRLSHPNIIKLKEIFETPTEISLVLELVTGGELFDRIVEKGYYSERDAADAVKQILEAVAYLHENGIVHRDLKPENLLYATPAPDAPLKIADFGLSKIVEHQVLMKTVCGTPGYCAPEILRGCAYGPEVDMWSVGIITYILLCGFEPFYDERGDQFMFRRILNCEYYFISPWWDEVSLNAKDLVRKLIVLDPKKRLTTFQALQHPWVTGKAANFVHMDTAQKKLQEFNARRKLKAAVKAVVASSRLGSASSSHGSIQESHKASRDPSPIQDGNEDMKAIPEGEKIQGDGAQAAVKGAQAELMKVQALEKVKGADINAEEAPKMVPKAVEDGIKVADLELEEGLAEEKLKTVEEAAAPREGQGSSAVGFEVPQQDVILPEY
Outline: (§1)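 Percent-of-control values derive from RLU, calculated as (test − positive)/(negative − positive) × 100, where DMSO defines 100% and a positive control compound defines 0%. Each compound was tested at 1 μM in the 468-kinase panel; sub-35% readings indicate activity.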

CDK4-cyclinD3 = CDK4-cyclinD3 (Homo sapiens, UniProt P11802); details: CDK4-cyclinD3, 1 μM; read-out: % control
Outline: as §1

DDR1 = DDR1 (Homo sapiens, UniProt Q08345); details: DDR1, 1 μM; read-out: % control
Outline: as §1

EGFR = EGFR (Homo sapiens, UniProt P00533); details: read-out: % control
Outline: as §1

EGFR(G719C) = EGFR(G719C) (Homo sapiens, UniProt P00533, G719C); details: read-out: % control
Outline: as §1

EGFR(L747-T751del, Sins) = EGFR(L747-T751del, Sins) (Homo sapiens, UniProt P00533, DEL747-750/T751S); details: read-out: % control
Outline: as §1

EGFR(S752-I759del) = EGFR(S752-I759del) (Homo sapiens, UniProt P00533, DEL752-759); details: read-out: % control
Outline: as §1

EPHA2 = EPHA2 (Homo sapiens, UniProt P29317); details: EPHA2, 1 μM; read-out: % control
Outline: (§2)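 The panel spans 468 kinases, and each inventive compound was applied at 1 μM from DMSO. Lower % control means stronger binding; the activity cut-off is set at less than 35%.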

LTK = LTK (Homo sapiens, UniProt P29376); details: read-out: % control
Outline: as §1

LYN = LYN (Homo sapiens, UniProt P07948); details: read-out: % control
Outline: as §1

MST3 = MST3 (Homo sapiens, UniProt Q9Y6E0); details: MST3, 1 μM; read-out: % control
Outline: as §1

PAK1 = PAK1 (Homo sapiens, UniProt Q13153); details: PAK1, 1 μM; read-out: % control
Outline: as §1

PAK7 = PAK7 (Homo sapiens, UniProt Q9P286); details: PAK7, 1 μM; read-out: % control
Outline: as §2

PCTK1 = PCTK1 (Homo sapiens, UniProt Q00536); details: PCTK1, 1 μM; read-out: % control
Outline: as §1

PRKCQ = PRKCQ (Homo sapiens, UniProt Q04759); details: read-out: % control
Outline: as §1

TXK = biological target: T2, TXK (Homo sapiens, UniProt P42681); details: read-out: % control
T2 sequence (P42681 1-527): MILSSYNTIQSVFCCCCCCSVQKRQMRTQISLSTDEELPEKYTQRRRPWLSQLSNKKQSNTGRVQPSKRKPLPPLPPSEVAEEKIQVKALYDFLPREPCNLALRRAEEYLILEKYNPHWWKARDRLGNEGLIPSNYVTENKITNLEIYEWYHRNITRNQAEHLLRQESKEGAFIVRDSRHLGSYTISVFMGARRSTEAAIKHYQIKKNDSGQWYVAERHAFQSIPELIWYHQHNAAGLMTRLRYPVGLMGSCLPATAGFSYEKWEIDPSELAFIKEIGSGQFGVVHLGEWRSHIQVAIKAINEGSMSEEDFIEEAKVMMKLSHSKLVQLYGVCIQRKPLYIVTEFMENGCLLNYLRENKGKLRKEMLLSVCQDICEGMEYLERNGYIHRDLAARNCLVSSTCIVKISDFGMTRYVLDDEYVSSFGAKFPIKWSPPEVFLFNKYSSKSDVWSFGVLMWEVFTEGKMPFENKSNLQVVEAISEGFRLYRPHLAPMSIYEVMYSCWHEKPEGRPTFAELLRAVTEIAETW
Outline: as §1

VEGFR2 = VEGFR2 (Homo sapiens, UniProt P35968); details: VEGFR2, 1 μM; read-out: % control
Outline: as §1

YANK2 = YANK2 (Homo sapiens, UniProt Q9NY57); details: YANK2, 1 μM; read-out: % control
Outline: as §1

Sequence of LTK (P29376 17-864): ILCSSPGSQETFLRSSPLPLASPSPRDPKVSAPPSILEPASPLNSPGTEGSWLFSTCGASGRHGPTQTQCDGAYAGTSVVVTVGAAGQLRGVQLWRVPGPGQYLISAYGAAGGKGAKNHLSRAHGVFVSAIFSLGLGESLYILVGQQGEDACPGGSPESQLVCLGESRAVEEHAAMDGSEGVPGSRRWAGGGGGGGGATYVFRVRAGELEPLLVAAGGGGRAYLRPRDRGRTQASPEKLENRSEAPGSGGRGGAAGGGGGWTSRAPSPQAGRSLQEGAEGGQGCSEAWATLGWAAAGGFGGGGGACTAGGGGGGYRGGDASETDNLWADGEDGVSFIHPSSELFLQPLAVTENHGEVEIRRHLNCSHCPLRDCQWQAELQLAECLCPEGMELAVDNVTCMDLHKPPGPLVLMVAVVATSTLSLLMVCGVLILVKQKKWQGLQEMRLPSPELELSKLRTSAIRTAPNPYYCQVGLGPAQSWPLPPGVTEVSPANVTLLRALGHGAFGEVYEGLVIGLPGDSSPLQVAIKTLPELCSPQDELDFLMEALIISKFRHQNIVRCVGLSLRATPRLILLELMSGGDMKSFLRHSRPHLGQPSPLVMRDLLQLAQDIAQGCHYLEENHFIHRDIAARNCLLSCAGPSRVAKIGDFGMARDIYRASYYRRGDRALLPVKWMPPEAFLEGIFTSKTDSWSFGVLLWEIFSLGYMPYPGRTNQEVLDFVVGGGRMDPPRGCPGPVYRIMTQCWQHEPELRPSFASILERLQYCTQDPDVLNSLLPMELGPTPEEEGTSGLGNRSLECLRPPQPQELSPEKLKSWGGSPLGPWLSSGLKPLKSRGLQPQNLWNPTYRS
Sequence of MST3 (Q9Y6E0 whole entry): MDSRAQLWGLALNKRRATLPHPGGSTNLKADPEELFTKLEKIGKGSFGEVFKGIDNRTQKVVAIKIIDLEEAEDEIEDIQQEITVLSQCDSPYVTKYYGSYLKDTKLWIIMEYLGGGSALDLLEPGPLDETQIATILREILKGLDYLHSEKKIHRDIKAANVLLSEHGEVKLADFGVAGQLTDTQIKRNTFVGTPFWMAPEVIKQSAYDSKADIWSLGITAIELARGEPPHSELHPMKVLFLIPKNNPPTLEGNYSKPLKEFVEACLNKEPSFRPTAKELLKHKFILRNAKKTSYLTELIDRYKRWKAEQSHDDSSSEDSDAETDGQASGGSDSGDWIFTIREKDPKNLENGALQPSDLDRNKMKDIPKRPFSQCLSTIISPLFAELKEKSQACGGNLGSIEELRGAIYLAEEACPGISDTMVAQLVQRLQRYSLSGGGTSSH
Sequence of EGFR(L747-T751del, Sins) (P00533 with tags, fused parts or gaps DEL747-750/T751S limits assumed): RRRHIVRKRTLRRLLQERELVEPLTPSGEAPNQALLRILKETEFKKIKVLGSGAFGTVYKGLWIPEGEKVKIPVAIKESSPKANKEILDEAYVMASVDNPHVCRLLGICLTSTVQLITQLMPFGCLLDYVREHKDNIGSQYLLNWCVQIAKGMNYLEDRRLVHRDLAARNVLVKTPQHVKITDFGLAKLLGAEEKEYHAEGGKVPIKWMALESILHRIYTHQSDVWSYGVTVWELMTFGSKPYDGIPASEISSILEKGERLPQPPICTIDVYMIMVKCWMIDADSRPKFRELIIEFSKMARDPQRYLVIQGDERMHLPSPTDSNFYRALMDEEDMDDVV
Sequence of EGFR (P00533 25-1210): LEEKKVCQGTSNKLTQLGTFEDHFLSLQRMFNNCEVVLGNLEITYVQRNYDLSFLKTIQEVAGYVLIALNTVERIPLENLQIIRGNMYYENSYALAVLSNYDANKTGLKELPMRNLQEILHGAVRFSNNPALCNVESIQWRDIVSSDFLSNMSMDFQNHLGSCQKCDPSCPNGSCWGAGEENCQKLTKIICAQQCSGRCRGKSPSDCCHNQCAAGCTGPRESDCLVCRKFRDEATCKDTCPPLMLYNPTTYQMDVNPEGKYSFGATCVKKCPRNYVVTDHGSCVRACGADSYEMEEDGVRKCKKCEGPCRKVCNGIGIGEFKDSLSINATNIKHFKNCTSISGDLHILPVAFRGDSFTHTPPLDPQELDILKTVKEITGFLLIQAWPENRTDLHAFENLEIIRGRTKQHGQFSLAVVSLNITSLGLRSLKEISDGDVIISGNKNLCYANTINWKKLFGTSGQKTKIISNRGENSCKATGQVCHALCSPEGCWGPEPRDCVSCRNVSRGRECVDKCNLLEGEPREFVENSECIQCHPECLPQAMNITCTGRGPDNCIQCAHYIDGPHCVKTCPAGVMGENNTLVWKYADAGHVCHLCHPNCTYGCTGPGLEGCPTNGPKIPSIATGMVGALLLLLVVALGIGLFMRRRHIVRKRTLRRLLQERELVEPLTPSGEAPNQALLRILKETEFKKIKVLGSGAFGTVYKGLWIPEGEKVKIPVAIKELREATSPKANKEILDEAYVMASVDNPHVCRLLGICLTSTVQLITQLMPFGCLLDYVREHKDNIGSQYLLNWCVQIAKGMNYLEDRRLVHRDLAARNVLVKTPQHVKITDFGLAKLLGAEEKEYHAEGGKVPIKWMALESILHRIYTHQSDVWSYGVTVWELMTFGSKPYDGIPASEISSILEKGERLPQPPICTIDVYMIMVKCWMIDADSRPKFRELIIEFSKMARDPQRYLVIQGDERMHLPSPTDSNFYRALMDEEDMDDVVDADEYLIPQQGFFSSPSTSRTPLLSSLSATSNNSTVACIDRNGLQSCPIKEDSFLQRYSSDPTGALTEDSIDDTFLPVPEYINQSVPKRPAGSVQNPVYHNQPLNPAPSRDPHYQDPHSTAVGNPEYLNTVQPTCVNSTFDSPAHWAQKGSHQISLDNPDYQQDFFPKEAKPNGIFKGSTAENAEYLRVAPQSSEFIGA
Sequence of PCTK1 (Q00536 whole entry): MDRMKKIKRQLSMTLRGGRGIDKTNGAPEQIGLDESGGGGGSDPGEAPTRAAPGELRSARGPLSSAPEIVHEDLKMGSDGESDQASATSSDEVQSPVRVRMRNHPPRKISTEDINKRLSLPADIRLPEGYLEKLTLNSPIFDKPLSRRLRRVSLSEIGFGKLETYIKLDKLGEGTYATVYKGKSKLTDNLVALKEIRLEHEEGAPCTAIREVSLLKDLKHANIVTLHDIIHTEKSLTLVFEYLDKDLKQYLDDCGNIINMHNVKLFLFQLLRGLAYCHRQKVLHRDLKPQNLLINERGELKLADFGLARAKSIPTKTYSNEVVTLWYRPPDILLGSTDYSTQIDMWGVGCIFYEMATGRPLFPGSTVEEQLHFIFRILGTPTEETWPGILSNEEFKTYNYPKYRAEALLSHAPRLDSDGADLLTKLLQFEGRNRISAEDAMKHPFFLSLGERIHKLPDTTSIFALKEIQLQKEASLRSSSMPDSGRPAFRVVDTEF
Sequence of PAK7 (Q9P286 whole entry): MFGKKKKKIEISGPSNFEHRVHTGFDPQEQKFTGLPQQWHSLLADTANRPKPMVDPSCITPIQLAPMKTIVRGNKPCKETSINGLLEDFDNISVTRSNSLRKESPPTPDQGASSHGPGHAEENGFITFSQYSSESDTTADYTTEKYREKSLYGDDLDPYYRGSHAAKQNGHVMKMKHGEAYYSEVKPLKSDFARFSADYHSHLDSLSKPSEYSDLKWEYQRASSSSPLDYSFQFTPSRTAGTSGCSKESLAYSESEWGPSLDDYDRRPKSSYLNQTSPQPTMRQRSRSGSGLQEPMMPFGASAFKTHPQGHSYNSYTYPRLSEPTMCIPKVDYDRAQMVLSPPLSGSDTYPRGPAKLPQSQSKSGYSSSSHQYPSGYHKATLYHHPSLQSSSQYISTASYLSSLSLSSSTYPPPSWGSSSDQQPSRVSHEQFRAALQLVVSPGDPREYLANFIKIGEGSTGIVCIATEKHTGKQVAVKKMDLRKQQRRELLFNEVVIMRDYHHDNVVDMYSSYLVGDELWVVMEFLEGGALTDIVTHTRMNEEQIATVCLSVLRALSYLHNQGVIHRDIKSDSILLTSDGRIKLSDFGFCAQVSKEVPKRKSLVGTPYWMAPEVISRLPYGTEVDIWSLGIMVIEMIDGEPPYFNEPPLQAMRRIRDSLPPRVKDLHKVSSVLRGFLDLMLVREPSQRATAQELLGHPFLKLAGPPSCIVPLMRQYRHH
Sequence of YANK2 (Q9NY57 whole entry): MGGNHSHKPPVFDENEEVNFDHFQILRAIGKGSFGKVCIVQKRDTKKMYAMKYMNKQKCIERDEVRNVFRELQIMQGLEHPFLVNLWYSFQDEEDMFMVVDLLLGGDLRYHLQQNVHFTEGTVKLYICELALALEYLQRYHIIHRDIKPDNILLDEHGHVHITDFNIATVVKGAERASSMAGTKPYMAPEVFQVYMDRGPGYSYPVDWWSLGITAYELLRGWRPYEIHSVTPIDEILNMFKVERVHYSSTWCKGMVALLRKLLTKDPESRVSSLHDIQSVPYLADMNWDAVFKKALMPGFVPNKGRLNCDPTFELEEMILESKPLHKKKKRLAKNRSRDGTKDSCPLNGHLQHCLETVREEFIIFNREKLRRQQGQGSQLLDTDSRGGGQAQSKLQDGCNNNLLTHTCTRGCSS
Sequence of PAK1 (Q13153 whole entry): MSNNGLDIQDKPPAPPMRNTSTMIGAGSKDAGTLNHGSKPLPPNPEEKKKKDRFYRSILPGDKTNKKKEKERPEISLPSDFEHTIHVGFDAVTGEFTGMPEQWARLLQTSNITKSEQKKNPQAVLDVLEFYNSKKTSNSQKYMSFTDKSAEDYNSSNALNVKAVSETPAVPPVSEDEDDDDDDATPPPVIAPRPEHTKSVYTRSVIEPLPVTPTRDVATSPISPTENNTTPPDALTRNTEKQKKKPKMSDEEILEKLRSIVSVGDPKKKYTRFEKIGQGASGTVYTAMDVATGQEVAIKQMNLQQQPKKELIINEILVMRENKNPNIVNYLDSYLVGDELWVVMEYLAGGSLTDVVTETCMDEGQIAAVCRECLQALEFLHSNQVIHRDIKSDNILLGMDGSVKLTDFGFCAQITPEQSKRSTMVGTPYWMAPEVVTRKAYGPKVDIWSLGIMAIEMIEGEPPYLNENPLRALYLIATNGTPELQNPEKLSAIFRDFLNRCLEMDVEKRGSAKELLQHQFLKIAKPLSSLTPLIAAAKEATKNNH

Row | SMILES | remaining binding at 1 µM (CAMK4) [%] | remaining binding at 1 µM (CDK4-cyclinD3) [%] | remaining binding at 1 µM (DDR1) [%] | remaining binding at 1 µM (EGFR) [%] | remaining binding at 1 µM (EGFR(G719C)) [%] | remaining binding at 1 µM (EGFR(L747-T751del, Sins)) [%] | remaining binding at 1 µM (EGFR(S752-I759del)) [%] | remaining binding at 1 µM (EPHA2) [%] | remaining binding at 1 µM (LTK) [%] | remaining binding at 1 µM (LYN) [%] | remaining binding at 1 µM (MST3) [%] | remaining binding at 1 µM (PAK1) [%] | remaining binding at 1 µM (PAK7) [%] | remaining binding at 1 µM (PCTK1) [%] | remaining binding at 1 µM (PRKCQ) [%] | remaining binding at 1 µM (TXK) [%] | remaining binding at 1 µM (VEGFR2) [%] | remaining binding at 1 µM (YANK2) [%]
1 | O=C(c1ccc(-c2cnc3[nH]cc(Cl)c3c2NC2CCCC2)cc1)N1CCC(N2CCOCC2)CC1 [Compound 101, (4-(3-chloro-4-(cyclopentylamino)-1H-pyrrolo[2,3-b]pyridin-5-yl)phenyl)(4-morpholinopiperidin-1-yl)methanone] | 87 | 99 | 61 | 97 | 91 | 100 | 100 | 30 | 72 | 100 | 86 | 100 | 95 | 100 | 45 | 84 | 33 | 100
2 | CNc1c(-c2cnn([C@H]3CCN(C(C)=O)C[C@@H]3F)c2)cnc2[nH]cc(Cl)c12 [Compound 77, 1-((3S,4S)-4-(4-(3-chloro-4-(methylamino)-1H-pyrrolo[2,3-b]pyridin-5-yl)-1H-pyrazol-1-yl)-3-fluoropiperidin-1-yl)ethan-1-one] | 100 | 98 | 100 | 95 | 91 | 88 | 100 | 96 | 75 | 99 | 72 | 99 | 100 | 85 | 91 | 81 | 2.8 | 100
3 | CNc1c(-c2ccc(C(=O)N3CCC(N4CCOCC4)CC3)cc2)cnc2[nH]cc(Cl)c12 [Compound 96, (4-(3-chloro-4-(methylamino)-1H-pyrrolo[2,3-b]pyridin-5-yl)phenyl)(4-morpholinopiperidin-1-yl)methanone] | 100 | 100 | 100 | 100 | 100 | 76 | 98 | 100 | 62 | 100 | 74 | 99 | 41 | 86 | 76 | 81 | 4.2 | 100

From patent US12275731B2, “Azaindole inhibitors of wild-type and mutant forms of LRRK2” (DANA-FARBER CANCER INSTITUTE, INC., priority 2018, dated 2025)
